The term MIC denotes the lowest concentration found to suppress growth.

We go through 24 compounds from ChEMBL document CHEMBL1137480, “Synthesis and structure-activity relationship of 7-(substituted)-aminomethyl-4-quinolone-3-carboxylic acid derivatives” (2007).

Common to all, as to format: functional
Test [1] has as its system Streptococcus pneumoniae. Put plainly: Antibacterial activity against Streptococcus pneumoniae 31002 after 24 hrs by agar dilution method.
Test [2] deals with Klebsiella pneumoniae. As to the kind of experiment: Antibacterial activity against Klebsiella pneumoniae 46101 after 24 hrs by agar dilution method.
The test system of test [3] is Shigella boydii. Put plainly: Antibacterial activity against Shigella boydii 51313 after 24 hrs by agar dilution method.
Test [4] relates to Salmonella. Put plainly: Antibacterial activity against […] 48107 after 24 hrs by agar dilution method. (In agar dilution the substance is mixed into plates at graded concentrations.)
The subject of test [5] is Staphylococcus aureus. As to the kind of experiment: Antibacterial activity against Staphylococcus aureus 26003 after 24 hrs by agar dilution method.
The test system of test [6] is Staphylococcus epidermidis. As to the kind of experiment: Antibacterial activity against Staphylococcus epidermidis 26069 after 24 hrs by agar dilution method.

Structures are written as SMILES. Values after ≈ are worked out from the molar mass of the structure shown.

Regarding `O=C(O)c1cn(C2CC2)c2c(F)c(CNc3cccc(Cl)c3)c(F)cc2c1=O`, the MIC in test [1] was at most 0.049 µg/mL; in test [2], 1.56 µg/mL (≈ 3.85 µM); in test [3] it was 0.78 µg/mL (≈ 1.93 µM); in test [4], 1.56 µg/mL (≈ 3.85 µM); in test [5], 0.195 µg/mL (≈ 0.482 µM); in test [6], 1.56 µg/mL (≈ 3.85 µM).
Take `CC1COc2c(Cn3ccnc3)c(F)cc3c(=O)c(C(=O)O)cn1c23` (centres undefined): the MIC was 0.78 µg/mL (≈ 2.27 µM) in test [1]; 0.195 µg/mL (≈ 0.568 µM) in test [2]; 0.78 µg/mL (≈ 2.27 µM) in test [3]; 0.39 µg/mL (≈ 1.14 µM) in test [4]; 3.13 µg/mL (≈ 9.12 µM) in test [5]; 3.13 µg/mL (≈ 9.12 µM) in test [6].
Take `C[C@H]1COc2c(C3(N)CC3)c(F)cc3c(=O)c(C(=O)O)cn1c23` [PAZUFLOXACIN]: the minimum inhibitory concentration (MIC) in test [1] came to 0.049 µg/mL (≈ 0.154 µM); in test [2], 0.049 µg/mL (≈ 0.154 µM); in test [3], 0.049 µg/mL (≈ 0.154 µM); in test [4], 0.049 µg/mL (≈ 0.154 µM); in test [5], 0.195 µg/mL (≈ 0.613 µM); in test [6], 0.39 µg/mL (≈ 1.23 µM).
Regarding `C[C@H]1COc2c(N3CCN(C)CC3)c(F)cc3c(=O)c(C(=O)O)cn1c23.C[C@H]1COc2c(N3CCN(C)CC3)c(F)cc3c(=O)c(C(=O)O)cn1c23.O` [LEVOFLOXACIN], the MIC came to 0.195 µg/mL in test [1]; 0.098 µg/mL in test [2]; 0.098 µg/mL in test [3]; 0.098 µg/mL in test [4]; 0.78 µg/mL in test [5]; 0.78 µg/mL in test [6].
With `Cc1ccc(NCc2c(F)cc3c(=O)c(C(=O)O)cn(C4CC4)c3c2F)cc1`, the MIC was 0.049 µg/mL (≈ 0.127 µM) in test [1]; 1.56 µg/mL (≈ 4.06 µM) in test [2]; 0.39 µg/mL (≈ 1.01 µM) in test [3]; 0.78 µg/mL (≈ 2.03 µM) in test [4]; 0.39 µg/mL (≈ 1.01 µM) in test [5]; 1.56 µg/mL (≈ 4.06 µM) in test [6].
Turning to `CCn1cc(C(=O)O)c(=O)c2cc(F)c(CNC)c(F)c21`, the MIC was 3.13 µg/mL (≈ 10.6 µM) in test [1]; 0.195 µg/mL (≈ 0.658 µM) in test [2]; 0.39 µg/mL (≈ 1.32 µM) in test [3]; 0.39 µg/mL (≈ 1.32 µM) in test [4]; above 6.25 µg/mL in test [5]; above 6.25 µg/mL in test [6].
In the case of `CN1CCN(Cc2c(F)cc3c(=O)c(C(=O)O)cn(C4CC4)c3c2F)CC1`, the minimum inhibitory concentration (MIC) is 1.56 µg/mL (≈ 4.13 µM) in test [1]; 1.56 µg/mL (≈ 4.13 µM) in test [2]; 1.56 µg/mL (≈ 4.13 µM) in test [3]; 1.56 µg/mL (≈ 4.13 µM) in test [4]; 12.5 µg/mL (≈ 33.1 µM) in test [5]; 12.5 µg/mL (≈ 33.1 µM) in test [6].
As to `C[C@H]1COc2c(CNc3ccc(Cl)cc3)c(F)cc3c(=O)c(C(=O)O)cn1c23`, the MIC in test [1] was at most 0.049 µg/mL; in test [2], 0.195 µg/mL (≈ 0.484 µM); in test [3] it was 0.195 µg/mL (≈ 0.484 µM); in test [4] it was 0.098 µg/mL (≈ 0.243 µM); in test [5], 0.098 µg/mL (≈ 0.243 µM); in test [6] it was 0.098 µg/mL (≈ 0.243 µM).
For `CCNCc1c(F)cc2c(=O)c(C(=O)O)cn3c2c1OC[C@@H]3C`, the minimum inhibitory concentration (MIC) is 1.56 µg/mL (≈ 4.87 µM) in test [1]; 0.049 µg/mL (≈ 0.153 µM) in test [2]; 0.195 µg/mL (≈ 0.609 µM) in test [3]; 0.195 µg/mL (≈ 0.609 µM) in test [4]; above 6.25 µg/mL in test [5]; above 6.05 µg/mL in test [6].
On to `O=C(O)c1cn(C2CC2)c2c(F)c(CNc3ccc(F)cc3)c(F)cc2c1=O`, for which the MIC in test [1] was 0.049 µg/mL (≈ 0.126 µM); in test [2], 0.78 µg/mL (≈ 2.01 µM); in test [3], 0.195 µg/mL (≈ 0.502 µM); in test [4], 0.39 µg/mL (≈ 1 µM); in test [5], 0.78 µg/mL (≈ 2.01 µM); in test [6], 1.56 µg/mL (≈ 4.02 µM).
For `CCNCc1c(F)cc2c(=O)c(C(=O)O)cn(C3CC3)c2c1F`, the MIC in test [1] was 0.78 µg/mL (≈ 2.42 µM); in test [2], at most 0.049 µg/mL; in test [3], at most 0.049 µg/mL; in test [4], 0.195 µg/mL (≈ 0.605 µM); in test [5] it was above 6.25 µg/mL; in test [6], above 6.25 µg/mL.
Turning to `CC1COc2c(CN3CCCCC3)c(F)cc3c(=O)c(C(=O)O)cn1c23` (centres undefined), the MIC is 3.13 µg/mL (≈ 8.69 µM) in test [1]; 0.39 µg/mL (≈ 1.08 µM) in test [2]; 0.098 µg/mL (≈ 0.272 µM) in test [3]; 0.78 µg/mL (≈ 2.16 µM) in test [4]; above 6.25 µg/mL in test [5]; above 6.25 µg/mL in test [6].
For the compound `CCNCc1c(F)cc2c(=O)c(C(=O)O)cn(CC)c2c1F`, the MIC in test [1] was 3.13 µg/mL (≈ 10.1 µM); in test [2], 0.195 µg/mL (≈ 0.628 µM); in test [3] it was 0.39 µg/mL (≈ 1.26 µM); in test [4] it was 0.39 µg/mL (≈ 1.26 µM); in test [5] it was above 6.25 µg/mL; in test [6] it was above 6.25 µg/mL.
For the compound `Cc1ccc(NCc2c(F)cc3c(=O)c(C(=O)O)cn4c3c2OC[C@@H]4C)cc1C`, the minimum inhibitory concentration (MIC) stood at 0.195 µg/mL (≈ 0.492 µM) in test [1]; 6.25 µg/mL (≈ 15.8 µM) in test [2]; 1.56 µg/mL (≈ 3.94 µM) in test [3]; 3.13 µg/mL (≈ 7.9 µM) in test [4]; 3.13 µg/mL (≈ 7.9 µM) in test [5]; 3.13 µg/mL (≈ 7.9 µM) in test [6].
`CCN(Cc1c(F)cc2c(=O)c(C(=O)O)cn(C3CC3)c2c1F)c1ccccc1`: the MIC in test [1] was determined as 3.13 µg/mL (≈ 7.86 µM); in test [2] it was 6.25 µg/mL (≈ 15.7 µM); in test [3], 3.13 µg/mL (≈ 7.86 µM); in test [4], 3.13 µg/mL (≈ 7.86 µM); in test [5], 3.13 µg/mL (≈ 7.86 µM); in test [6], 6.25 µg/mL (≈ 15.7 µM).
In the case of `Cc1cc(C)nc(NCc2c(F)cc3c(=O)c(C(=O)O)cn4c3c2OC[C@@H]4C)c1`, the MIC in test [1] is 0.195 µg/mL (≈ 0.491 µM); in test [2] it was 0.39 µg/mL (≈ 0.981 µM); in test [3], 0.195 µg/mL (≈ 0.491 µM); in test [4], 0.78 µg/mL (≈ 1.96 µM); in test [5], 0.78 µg/mL (≈ 1.96 µM); in test [6] it was 0.78 µg/mL (≈ 1.96 µM).
In the case of `O=C(O)c1cn(C2CC2)c2c(F)c(Cn3ccnc3)c(F)cc2c1=O`, the MIC in test [1] is 0.78 µg/mL (≈ 2.26 µM); in test [2] it was 0.195 µg/mL (≈ 0.565 µM); in test [3] it was 0.39 µg/mL (≈ 1.13 µM); in test [4] it was 0.195 µg/mL (≈ 0.565 µM); in test [5] it was 6.25 µg/mL (≈ 18.1 µM); in test [6], above 6.25 µg/mL.
`Cc1cc(C)nc(NCc2c(F)cc3c(=O)c(C(=O)O)cn(C4CC4)c3c2F)c1`: the MIC came out at 0.098 µg/mL (≈ 0.245 µM) in test [1]; 0.78 µg/mL (≈ 1.95 µM) in test [2]; 0.39 µg/mL (≈ 0.976 µM) in test [3]; 0.78 µg/mL (≈ 1.95 µM) in test [4]; 0.39 µg/mL (≈ 0.976 µM) in test [5]; 1.56 µg/mL (≈ 3.91 µM) in test [6].
Consider `C[C@H]1COc2c(CNc3ccccc3)c(F)cc3c(=O)c(C(=O)O)cn1c23`, for which the MIC in test [1] turned out to be 0.098 µg/mL (≈ 0.266 µM); in test [2], 0.78 µg/mL (≈ 2.12 µM); in test [3], 0.39 µg/mL (≈ 1.06 µM); in test [4], 0.78 µg/mL (≈ 2.12 µM); in test [5] it was 1.56 µg/mL (≈ 4.23 µM); in test [6], 1.56 µg/mL (≈ 4.23 µM).
As for `Cc1ccc(NCc2c(F)cc3c(=O)c(C(=O)O)cn4c3c2OC[C@@H]4C)cc1`, the MIC in test [1] was 0.098 µg/mL (≈ 0.256 µM); in test [2], 3.13 µg/mL (≈ 8.19 µM); in test [3], 0.78 µg/mL (≈ 2.04 µM); in test [4], 1.56 µg/mL (≈ 4.08 µM); in test [5] it was 0.78 µg/mL (≈ 2.04 µM); in test [6], 3.13 µg/mL (≈ 8.19 µM).
Consider `O=C(O)c1cn(C2CC2)c2c(F)c(CN3CCNCC3)c(F)cc2c1=O`, for which the MIC in test [1] came to 6.25 µg/mL (≈ 17.2 µM); in test [2], 0.195 µg/mL (≈ 0.537 µM); in test [3] it was 0.78 µg/mL (≈ 2.15 µM); in test [4], 0.195 µg/mL (≈ 0.537 µM); in test [5], 6.25 µg/mL (≈ 17.2 µM); in test [6], 6.25 µg/mL (≈ 17.2 µM).
For the compound `C[C@H]1COc2c(CN3CCCCC3)c(F)cc3c(=O)c(C(=O)O)cn1c23`, the minimum inhibitory concentration (MIC) is 1.56 µg/mL (≈ 4.33 µM) in test [1]; 0.195 µg/mL (≈ 0.541 µM) in test [2]; 0.78 µg/mL (≈ 2.16 µM) in test [3]; 0.39 µg/mL (≈ 1.08 µM) in test [4]; above 6.25 µg/mL in test [5]; above 6.25 µg/mL in test [6].
Regarding `CC1COc2c(CNC3CC3)c(F)cc3c(=O)c(C(=O)O)cn1c23` (centres undefined), the MIC in test [1] is 0.39 µg/mL (≈ 1.17 µM); in test [2], at most 0.049 µg/mL; in test [3], at most 0.049 µg/mL; in test [4] it was at most 0.049 µg/mL; in test [5], 3.13 µg/mL (≈ 9.42 µM); in test [6] it was 3.13 µg/mL (≈ 9.42 µM).
As for `CC(C)NCc1c(F)cc2c(=O)c(C(=O)O)cn3c2c1OC[C@@H]3C`, the minimum inhibitory concentration (MIC) is 3.13 µg/mL (≈ 9.36 µM) in test [1]; 0.195 µg/mL (≈ 0.583 µM) in test [2]; 0.39 µg/mL (≈ 1.17 µM) in test [3]; 0.39 µg/mL (≈ 1.17 µM) in test [4]; above 6.25 µg/mL in test [5]; above 6.25 µg/mL in test [6].
